# Where two headings read alike, the source gives them in different places.
# Tests used:
# γH2AX foci in DLD1 cells = experiment: γH2AX foci immunofluorescence staining; type: cell-based, human; details: 10 μM Q-VD-OPh with 50 nM 5-FdU, DLD1 shSCR or shUDG
# Procedure: (§1) Cells cultured on glass coverslips were treated with 5-FdU in the presence or absence of 10 μM caspase inhibitor Q-VD-OPH (BioVision Inc). Cells were fixed in 3.7% formaldehyde for 10 minutes, blocked with PBS containing 10% FBS and 0.1% Triton X-100 for 20 minutes, washed with PBS three times, and incubated with primary anti-γH2AX antibody (Millipore, dilution: 1:150) in PBS containing 0.1% Triton X-100 at 4° C. overnight. The cells were then washed with PBS three times, incubated with secondary antibodies (Alexa Fluor 594, Life Technologies; dilution: 1:400) in PBS containing 0.1% Triton X-100 for 1 h, and washed with PBS three times. The slides were mounted with antifade solution with DAPI (Cell Signaling) and visualized on a Leica laser microscope.
# [1] = tested on: γH2AX foci in HEC1A cells; experiment: γH2AX foci immunofluorescence staining; type: cell-based, human; details: 10 μM Q-VD-OPh with 50 nM 5-FdU, HEC1A shSCR or shUDG
# Procedure: as §1
# [2] = tested on: cleaved PARP in HEC1A cells; experiment: Western blot of cleaved PARP; type: cell-based, human; details: 10 μM Q-VD-OPh, 50 nM 5-FdU, HEC1A shSCR and shUDG
# Procedure: (§2) Western blots were performed as described in Yan et al. (Clin Cancer Res. (2007) 13:1532-39). Antibodies used were as follows: Anti-UDG (FL-313) (Santa Cruz Biotechnology), anti-Cleaved PARP (Asp214)(19F4) (Cell Signaling), and anti-α-Tubulin (Calbiochem).
# [3] = tested on: cleaved PARP in DLD1 cells; experiment: Western blot of cleaved PARP; type: cell-based, human; details: 10 μM Q-VD-OPh, 50 nM 5-FdU, DLD1 shSCR and shUDG
# Procedure: as §2
# [4] = tested on: HEC1A endometrial cancer cells; experiment: Colony survival assay, shSCR and shUDG cells; type: cell-based, human; details: HEC1A shUDG vs shSCR
# Procedure: UDG knockdown was performed via shRNA transduction with validated clone from Sigma-Aldrich. The ID of UDG shRNA clone is NM_003362.2-656s21c1. A non-targeted scramble control shRNA clone (Sigma-Aldrich) was also used. Transfection of shRNA clones was performed according to manufacturer's specifications from Lipofectamine 2000 (Invitrogen). Lentiviral particles were produced via HEK293 cells, and targeted cells were infected and selected with puromycin. The stable UDG knockdown levels were verified for q-PCR and western blot analysis.
# DLD1 (200 cells/well) or HEC1A (300 cells/well) cells were plated in 6-well culture dishes and allowed to adhere for 16 h. Cells were treated with drug for 24 h, gently washed twice with 1×PBS, and incubated with fresh media for at least 10 days to allow individual colonies to form. Colonies were stained with methylene blue, and only colonies containing ≥50 cells were counted. The percentage of survival was determined relative to untreated control averaged over 3 independent experiments.
# DLD1 colon cancer cells = details: for effect of UDG depletion on drug sensitivity: DLD1 shUDG vs shSCR
# Procedure: UDG knockdown was performed via shRNA transduction with validated clone from Sigma-Aldrich. […] A non-targeted scramble control shRNA clone (Sigma-Aldrich) was also used. Transfection of shRNA clones was performed according to manufacturer's specifications from Lipofectamine 2000 (Invitrogen). Lentiviral particles were produced via HEK293 cells, and targeted cells were infected and selected with puromycin. The stable UDG knockdown levels were verified for q-PCR and western blot analysis.
# Colonies were stained with methylene blue, and only colonies containing ≥50 cells were counted. The percentage of survival was determined relative to untreated control averaged over 3 independent experiments.
# From the text for HCT116 p53 KO cells: (§3) p53 or UDG knockdown was achieved via shRNA transduction. Lentiviral vectors LV-THM-shp53 (which also expresses a GFP reporter) or LV-Bleo-shp53 to perform p53 KD in WT HCT116 cells were obtained from Case Western Reserve University, Cleveland, Ohio Lentiviral vector targeting GFP (sh-GFP) was used as control. UDG shRNA vectors (shUDG: NM_003362.2-656s21c1, shUDG-2: NM_003362.2-758s21c1, and shUDG-3: NM_003362.2-893s21c1) were purchased from Sigma, and a scramble targeting shRNA vector (Sigma) was used as paired control. The lentiviral production and infection were performed as previously described. Cells stably infected with LV-THM-p53 were isolated by cell sorting on the basis of their GFP expression.
# (§4) Cancer cells (200-300 cells/well) were seeded in 6-well culture dishes and allowed to adhere overnight. For 5-FdU, cells were treated for 24 h, then gently washed with PBS, and incubated with fresh media for at least 10 days to allow individual colonies to form. […] After 10-18 days, the plates were stained with methylene blue. Colonies containing ≥50 cells were counted. The percentage of survival was determined relative to untreated control averaged over 3 independent experiments.
# From the text for HCT116 p53 WT cells: as §3, §4
smiles,measurement,setting,value
"O=c1[nH]cc(F)c(=O)[nH]1 [5-FU, 5-Fluorouracil]",effect of UDG depletion on cytotoxicity,"HCT116 p53 WT cells; HCT116 p53 WT, shUDG vs shSCR",no significant survival differences
same,effect of UDG depletion on cytotoxicity,"HCT116 p53 KO cells; HCT116 p53 KO, shUDG vs shSCR",only moderately sensitized
CC(C)[C@H](NC(=O)c1ccc2ccccc2n1)C(=O)N[C@@H](CC(=O)O)C(=O)COc1c(F)cccc1F [Q-VD-OPh],"γH2AX foci, Q-VD-OPh treated vs non-treated",γH2AX foci in DLD1 cells,essentially the same
same,"γH2AX foci, Q-VD-OPh treated vs non-treated",[1],essentially the same
same,cleaved PARP induced by 5-FdU in presence of Q-VD-OPh,[2],almost completely blocked
same,cleaved PARP induced by 5-FdU in presence of Q-VD-OPh,[3],almost completely blocked
"N.N.[Cl][Pt][Cl] [cisplatin, cis-diamminedichloroplatinum II]",effect of UDG depletion on drug sensitivity,[4],no further sensitivity
same,effect of UDG depletion on drug sensitivity,DLD1 colon cancer cells,no further sensitivity
COc1cccc2c1C(=O)c1c(O)c3c(c(O)c1C2=O)C[C@@](O)(C(=O)CO)C[C@@H]3O[C@H]1C[C@H](N)[C@H](O)[C@H](C)O1 [doxorubicin],effect of UDG depletion on drug sensitivity,[4],no further sensitivity
same,effect of UDG depletion on drug sensitivity,DLD1 colon cancer cells,no further sensitivity
Nc1nc2[nH]cc(CCc3ccc(C(=O)N[C@@H](CCC(=O)O)C(=O)O)cc3)c2c(=O)[nH]1 [pemetrexed],effect of UDG depletion on drug sensitivity,[4],sensitization was also observed
same,effect of UDG depletion on cytotoxicity,HCT116 p53 WT cells,no significant survival differences
same,effect of UDG depletion on drug sensitivity,DLD1 colon cancer cells,sensitization was also observed
same,effect of UDG depletion on cytotoxicity,HCT116 p53 KO cells,sensitized
Cc1cn([C@H]2C[C@H](O)[C@@H](CO)O2)c(=O)[nH]c1=O [thymidine],rescue of 5-FdU cell death by thymidine given 24 h after,"DLD1 colon cancer cells; 20 μM thymidine 24 h after 5-FdU, UDG depleted cells",barely inhibited cell death
same,cell killing by 5-FdU with simultaneous thymidine,"DLD1 colon cancer cells; 20 μM thymidine simultaneously with 0 to 200 nM 5-FdU, shSCR or shUDG",almost no killing
